US12201593B2, “Oral pharmaceutical formulations of bitter compounds for asthma” (Aardvark Therapeutics Inc., priority 2018, dated 2025)

What was measured:
[1] = tested on: primary human smooth muscle (HASM) cells; experiment: FLECS bronchodilator assay: single-cell contractility of HASM cells after bradykinin/carbachol-induced contraction; format: cell-based; details: for relaxation of stimulated cells: HASM from asthmatic and non-asthmatic humans, stimulated to contract with bradykinin; for effect on contraction relative to control (FIG. 2): test agent 100 μM alone, stimulating agents BK and carbachol (10 μM), negative control 0.1% DMSO
Source text: FIGS. 1A, 1B, and 1C show the bronchodilator assay workflow with a […] of FLECS. Each well holds ˜1,200 micro-patterns for sensing force-generation by single cells. […] The two cases represent the positive and negative controls for the assay.
An in vitro model using human airway smooth muscle cells (HASM) from both asthmatic patients and “normal” non-asthmatic humans was stimulated to contract with bradykinin.
The assay investigated bronchodilatation properties of bitter taste agonists, individually and in combination, administered to primary human smooth muscle (HASM) cells after inducing contraction with asthmatic agent bradykinin. HASM cells were obtained from asthmatic patients and “normal” or non-asthmatic patients. Each of 4 primary HASM cell lines (2 from healthy donors; 2 from asthmatic donors) were seeded on FLECSplates and were stimulated to contract via exposure to bradykinin (BK) or carbachol. […] Accordingly, at 15 minutes following exposure to BK, the cells were treated with a denatonium salt or 3-CQL for Example 1, or combinations thereof, as well as positive controls and negative controls. The cells were imaged at 5 minute intervals beginning with a baseline reading, out to 45 minutes. The measurement was attenuation of population wide BK-induced contractility by treatment of a test compound (or combination) relative to controls.
Each well holds ˜1,200 micro-patterns for sensing force-generation by single cells. […] The two cases represent the positive and negative controls for the assay.

TAS2R subtypes = details: cited from earlier work

Structure (SMILES)	potency of formoterol alone (FIG. 2) ([1]; formoterol 1 μM, concentration reduced 50×)	relaxation of stimulated cells [1]	effect on contraction relative to control (FIG. 2) [1]	number of TAS2R subtypes activated (TAS2R subtypes)
COc1ccc(CC(C)NCC(O)c2ccc(O)c(NC=O)c2)cc1 (stereo not drawn) [formoterol, Formoterol]	not as potent as previous experiments			
O=C(/C=C/c1ccc(O)c(O)c1)O[C@@H]1C[C@](O)(C(=O)O)C[C@@H](O)[C@H]1O [3-CQL, 3-caffeoylquinic acid]		did not relax	increase contraction relative to control	
CC[N+](CC)(CC(=O)Nc1c(C)cccc1C)Cc1ccccc1 [DB, phenylmethyl-[2-[(2,6-dimethylphenyl)amino]-2-oxoethyl]-diethylammonium benzoate]			relaxing effect	8
CC[N+](CC)(CC(=O)Nc1c(C)cccc1C)Cc1ccccc1 [DS, denatonium saccharide]		did relax		
